Settings: 313.14 K, Liquid, Vibrating tube method

CCCCCCCCCC [decane]
Settings	mass density [kg/m3]
24173 kPa	733.5
24196 kPa	733.5
24223 kPa	733.4
24245 kPa	733.5
24268 kPa	733.6
24304 kPa	733.6
24331 kPa	733.6
24351 kPa	733.6
24391 kPa	733.7
24420 kPa	733.7
24455 kPa	733.7
24491 kPa	733.7
24527 kPa	733.7
24559 kPa	733.8
24591 kPa	733.7
24632 kPa	733.9
24668 kPa	733.9
24704 kPa	733.9
24729 kPa	733.9
24758 kPa	734
24787 kPa	733.9
24824 kPa	733.9
24854 kPa	734
24889 kPa	734
24918 kPa	734.1
24952 kPa	734
24983 kPa	734
25018 kPa	734.1
25049 kPa	734.2
25080 kPa	734.1
25107 kPa	734.2
25129 kPa	734.2
25161 kPa	734.2
25188 kPa	734.2
25215 kPa	734.2
25255 kPa	734.3
25287 kPa	734.3
25323 kPa	734.3
25351 kPa	734.4
25387 kPa	734.3
25415 kPa	734.3
25452 kPa	734.5
25489 kPa	734.4
25558 kPa	734.6
25618 kPa	734.5
25650 kPa	734.6
25684 kPa	734.6
25712 kPa	734.5
25750 kPa	734.5
25778 kPa	734.6
25811 kPa	734.6
25840 kPa	734.7
25878 kPa	734.8
27095 kPa	735.5
27127 kPa	735.5
27155 kPa	735.6
27178 kPa	735.5
27206 kPa	735.6
27239 kPa	735.7
27267 kPa	735.7
27295 kPa	735.5
27328 kPa	735.7
27370 kPa	735.7
27403 kPa	735.7
27432 kPa	735.8
27465 kPa	735.8
27498 kPa	735.7
27527 kPa	735.8
27560 kPa	735.9
27599 kPa	735.8
27627 kPa	735.8
27661 kPa	735.9
27685 kPa	735.8
27728 kPa	735.9
27767 kPa	736
27811 kPa	736
27850 kPa	735.9
27898 kPa	736.1
27932 kPa	736.2
29093 kPa	736.8
29131 kPa	736.9
29195 kPa	737
29243 kPa	737
29286 kPa	736.9
29330 kPa	737.1
29369 kPa	737.1
29414 kPa	737
29452 kPa	737.1
29496 kPa	737.2
29524 kPa	737.1
29568 kPa	737.2
29611 kPa	737.2
29645 kPa	737.3
29684 kPa	737.2
29729 kPa	737.2
29763 kPa	737.3
29809 kPa	737.3
29845 kPa	737.3
29878 kPa	737.3
29923 kPa	737.4
29963 kPa	737.5
30003 kPa	737.5
30049 kPa	737.5
30089 kPa	737.6
30124 kPa	737.6
30171 kPa	737.5
30212 kPa	737.5
30248 kPa	737.6
30281 kPa	737.7
30319 kPa	737.6
30352 kPa	737.7
30401 kPa	737.8
30433 kPa	737.7
30466 kPa	737.8
30504 kPa	737.8
30542 kPa	737.8
30575 kPa	737.8
30614 kPa	737.9
31015 kPa	738.1
31049 kPa	738
31124 kPa	738.2
31165 kPa	738.2
31205 kPa	738.3
31251 kPa	738.3
31303 kPa	738.3
31332 kPa	738.3
31379 kPa	738.3
32818 kPa	739.4
32847 kPa	739.2
32891 kPa	739.4
32920 kPa	739.3
32965 kPa	739.4
33007 kPa	739.5
33037 kPa	739.5
33079 kPa	739.5
33103 kPa	739.6
33135 kPa	739.5

— the NIST ThermoML archive (doi:10.1021/je800110r)
